Results on 19 compounds are retold here after US20070049593A1 (priority 2004, published 2007).

Counter-ions that a name gives are not always drawn. Where only a bound is given, the exact number is not on record here.

T1 sequence (P26663 2420-2963): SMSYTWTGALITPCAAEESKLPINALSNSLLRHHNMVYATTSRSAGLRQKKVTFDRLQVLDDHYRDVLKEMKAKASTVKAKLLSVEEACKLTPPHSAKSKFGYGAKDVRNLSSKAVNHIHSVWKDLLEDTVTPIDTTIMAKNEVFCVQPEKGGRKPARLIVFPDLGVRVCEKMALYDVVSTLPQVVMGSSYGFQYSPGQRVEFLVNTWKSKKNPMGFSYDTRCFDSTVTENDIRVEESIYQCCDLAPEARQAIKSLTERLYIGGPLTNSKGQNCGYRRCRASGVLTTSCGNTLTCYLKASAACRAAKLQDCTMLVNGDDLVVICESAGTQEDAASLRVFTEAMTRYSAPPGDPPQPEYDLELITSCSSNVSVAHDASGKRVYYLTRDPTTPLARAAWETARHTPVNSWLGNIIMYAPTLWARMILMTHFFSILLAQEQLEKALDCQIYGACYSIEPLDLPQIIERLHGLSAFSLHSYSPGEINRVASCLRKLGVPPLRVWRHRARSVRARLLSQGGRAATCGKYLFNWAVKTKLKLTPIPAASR

The assay has as its target T1, HCV polymerase (Hepatitis C virus genotype 1b, UniProt P26663).
T1 construct: a region encoding NS5B (J Virol 1991 March, 65(3), 1105-13, 544 amino acids after deletion of 47 amino acids on the C-terminal); 6xHis (C); made in house; host or cells: Escherichia coli
In words: biochemical. Details: species or system HCV BK strain. The procedure, abridged: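 Recombinant HCV BK-strain NS5B (C-terminal 47 aa deleted, His6-tagged, E. coli), 0.5 μg/ml, run with 5 μg/ml in vitro-transcribed RNA template (polyU/3′X), ATP/GTP/CTP 50 μM, UTP 2 μM plus [3H]UTP, pH 7.5, 25° C, 90 min. TCA-precipitated RNA counted by scintillation; IC50 from activity with vs without compound.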
On to `CCOc1ccc2c(c1)N(CCC1CCCN(C(C)C)C1)CCn1c-2c(C2CCCCC2)c2ccc(C(=O)O)cc21` (stereo not shown) [Example 1-349, 13-cyclohexyl-3-ethoxy-5-[2-(1-isopropylpiperidin-3-yl)ethyl]-6,7-dihydro-5H-benzo[5,6][1,4]diazepino[7,1-a]indole-10-carboxylic acid dihydrochloride], for which the IC50 was < 100 nM.
In the case of `CCc1ccc2c(c1)N(CCN1CCCC(CC)C1)CCn1c-2c(C2CCCCC2)c2ccc(C(=O)O)cc21` (stereo not shown) [Example 1-350, 13-cyclohexyl-3-ethyl-5-[2-(3-ethylpiperidin-1-yl)ethyl]-6,7-dihydro-5H-benzo[5,6][1,4]diazepino[7,1-a]indole-10-carboxylic acid dihydrochloride] it was < 100 nM.
Turning to `CC(C)C1CCCN(CCN2CCn3c(c(C4CCCCC4)c4ccc(C(=O)O)cc43)-c3ccc(Cl)cc32)C1` (stereo not shown) [Example 1-351, 3-chloro-13-cyclohexyl-5-[2-(3-isopropylpiperidin-1-yl)ethyl]-6,7-dihydro-5H-benzo[5,6][1,4]diazepino[7,1-a]indole-10-carboxylic acid dihydrochloride], the IC50 is < 100 nM.
The result for `COCC1CCCN(CCCN2CCn3c(c(C4CCCCC4)c4ccc(C(=O)O)cc43)-c3ccc(Cl)cc32)C1` (stereo not shown) [Example 1-352, 3-chloro-13-cyclohexyl-5-[3-(3-methoxymethylpiperidin-1-yl)propyl]-6,7-dihydro-5H-benzo[5,6][1,4]diazepino[7,1-a]indole-10-carboxylic acid monohydrochloride] reads < 100 nM; that for `CCC1CCCCN1CCCN1CCn2c(c(C3CCCCC3)c3ccc(C(=O)O)cc32)-c2ccc(Cl)cc21` (stereo not shown) [Example 1-353, 3-chloro-13-cyclohexyl-5-[3-(2-ethylpiperidin-1-yl)propyl]-6,7-dihydro-5H-benzo[5,6][1,4]diazepino[7,1-a]indole-10-carboxylic acid dihydrochloride], < 100 nM.
The result for `CCCc1ccc2c(c1)N(CCC1CCCN(C(C)C)C1)CCn1c-2c(C2CCCCC2)c2ccc(C(=O)O)cc21` (stereo not shown) [Example 1-354, 13-cyclohexyl-5-[2-(1-isopropylpiperidin-3-yl)ethyl]-3-propyl-6,7-dihydro-5H-benzo[5,6][1,4]diazepino[7,1-a]indole-10-carboxylic acid dihydrochloride] reads < 100 nM; that for `COCC1CCCCN1CCCN1CCn2c(c(C3CCCCC3)c3ccc(C(=O)O)cc32)-c2ccc(Cl)cc21` (stereo not shown) [Example 1-355, 3-chloro-13-cyclohexyl-5-[3-(2-methoxymethylpiperidin-1-yl)propyl]-6,7-dihydro-5H-benzo[5,6][1,4]diazepino[7,1-a]indole-10-carboxylic acid dihydrochloride], < 100 nM; that for `CCCc1ccc2c(c1)N(CCN1CCCC(C)C1)CCn1c-2c(C2CCCCC2)c2ccc(C(=O)O)cc21` (stereo not shown) [Example 1-356, 13-cyclohexyl-5-[2-(3-methylpiperidin-1-yl)ethyl]-3-propyl-6,7-dihydro-5H-benzo[5,6][1,4]diazepino[7,1-a]indole-10-carboxylic acid dihydrochloride], < 100 nM.
The result for `CCCc1ccc2c(c1)N(CCN1CCCC(CC)C1)CCn1c-2c(C2CCCCC2)c2ccc(C(=O)O)cc21` (stereo not shown) [Example 1-357, 13-cyclohexyl-5-[2-(3-ethylpiperidin-1-yl)ethyl]-3-propyl-6,7-dihydro-5H-benzo[5,6][1,4]diazepino[7,1-a]indole-10-carboxylic acid dihydrochloride] reads < 100 nM; that for `COCC1CCCN(CCN2CCn3c(c(C4CCCCC4)c4ccc(C(=O)O)cc43)-c3ccc(OCc4ccccc4)cc32)C1` (stereo not shown) [Example 1-358, 3-benzyloxy-13-cyclohexyl-5-[2-(3-methoxymethylpiperidin-1-yl)ethyl]-6,7-dihydro-5H-benzo[5,6][1,4]diazepino[7,1-a]indole-10-carboxylic acid dihydrochloride], < 100 nM; that for `CC(C)c1ccc2c(c1)N(CCN1CCCC1)CCn1c-2c(C2CCCCC2)c2ccc(C(=O)O)cc21` [Example 1-359, 13-cyclohexyl-3-isopropyl-5-[2-(pyrrolidin-1-yl)ethyl]-6,7-dihydro-5H-benzo[5,6][1,4]diazepino[7,1-a]indole-10-carboxylic acid monohydrochloride], < 100 nM.
`CCc1ccc2c(c1)N(CCN1CCCC1)CCn1c-2c(C2CCCCC2)c2ccc(C(=O)O)cc21` [Example 1-360, 13-cyclohexyl-3-ethyl-5-[2-(pyrrolidin-1-yl)ethyl]-6,7-dihydro-5H-benzo[5,6][1,4]diazepino[7,1-a]indole-10-carboxylic acid monohydrochloride]: the IC50 was < 100 nM.
Turning to `CC1CCCN(CCN2CCn3c(c(C4CCCCC4)c4ccc(C(=O)O)cc43)-c3ccc(OCc4ccccc4)cc32)C1` (stereo not shown) [Example 1-361, 3-benzyloxy-13-cyclohexyl-5-[2-(3-methylpiperidin-1-yl)ethyl]-6,7-dihydro-5H-benzo[5,6][1,4]diazepino[7,1-a]indole-10-carboxylic acid dihydrochloride], the IC50 was < 100 nM.
The result for `CC(C)N1CCCC(CCN2CCn3c(c(C4CCCCC4)c4ccc(C(=O)O)cc43)-c3ccc(OCc4ccccc4)cc32)C1` (stereo not shown) [Example 1-362, 3-benzyloxy-13-cyclohexyl-5-[2-(1-isopropylpiperidin-3-yl)ethyl]-6,7-dihydro-5H-benzo[5,6][1,4]diazepino[7,1-a]indole-10-carboxylic acid dihydrochloride] reads < 100 nM.
The result for `Cc1cc(COc2ccc3c(c2)N(CCN2CCCCC2)CCn2c-3c(C3CCCCC3)c3ccc(C(=O)O)cc32)no1` [Example 1-363, 13-cyclohexyl-3-(5-methylisoxazol-3-ylmethoxy)-5-[2-(piperidin-1-yl)ethyl]-6,7-dihydro-5H-benzo[5,6][1,4]diazepino[7,1-a]indole-10-carboxylic acid dihydrochloride] reads < 100 nM; that for `CC(C)C1CCCN(CCN2CCn3c(c(C4CCCCC4)c4ccc(C(=O)O)cc43)-c3ccccc32)C1` (stereo not shown) [Example 1-364, 13-cyclohexyl-5-[2-(3-isopropylpiperidin-1-yl)ethyl]-6,7-dihydro-5H-benzo[5,6][1,4]diazepino[7,1-a]indole-10-carboxylic acid dihydrochloride], < 100 nM.
The result for `Cc1ccc2c(c1)N(CCN1CCCC(C(C)C)C1)CCn1c-2c(C2CCCCC2)c2ccc(C(=O)O)cc21` (stereo not shown) [Example 1-365, 13-cyclohexyl-5-[2-(3-isopropylpiperidin-1-yl)ethyl]-3-methyl-6,7-dihydro-5H-benzo[5,6][1,4]diazepino[7,1-a]indole-10-carboxylic acid dihydrochloride] reads < 100 nM; that for `CCc1ccc2c(c1)N(CCN1CCCC(COC)C1)CCn1c-2c(C2CCCCC2)c2ccc(C(=O)O)cc21` (stereo not shown) [Example 1-366, 13-cyclohexyl-3-ethyl-5-[2-(3-methoxymethylpiperidin-1-yl)ethyl]-6,7-dihydro-5H-benzo[5,6][1,4]diazepino[7,1-a]indole-10-carboxylic acid dihydrochloride], < 100 nM.
In the case of `COCC1CCCN(CCN2CCn3c(c(C4CCCCC4)c4ccc(C(=O)O)cc43)-c3ccc(C(C)C)cc32)C1` (stereo not shown) [Example 1-367, 13-cyclohexyl-3-isopropyl-5-[2-(3-methoxymethylpiperidin-1-yl)ethyl]-6,7-dihydro-5H-benzo[5,6][1,4]diazepino[7,1-a]indole-10-carboxylic acid dihydrochloride], the IC50 was < 100 nM.

In general, IC50 refers to the point on the concentration scale where inhibition reaches its midpoint. Lower therefore signals greater potency.
